This is an account of results in patent US20040191168A1, “Tumor cell killing by cell cycle checkpoint abrogation combined with Inhibition of the classical mitogen activated protein (map) kinase pathway” (priority 2000, published 2004).

The test system of data set [1] is p42/44 MAPK. As to the kind of experiment: Phospho-MAPK immunoblot in U937 cells. In kind it is cell-based, human. As to conditions: UCN-01 150 nM, MEK inhibitor coincubated with UCN-01, 2 h to 18 h. The procedure: Immunoblot and Immunoprecipitation Analysis. Whole-cell pellets were lysed by sonication in 1× sample buffer [62.5 mM Tris base (pH6.8), 2% SDS, 50 mM DTT, 10% glycerol, 0.1% bromphenol blue, and […] each chymostatin, leupeptin, aprotinin, pepstatin, and soybean trypsin inhibitor] and boiled for 5 min. For analysis of phospho-proteins, 1 mM each Na vanadate and Na PPi was added to the sample buffer. Protein samples were collected from the supernatant after centrifugation of the samples at 12,800 3 g for 5 min, and protein was quantified using Coomassie Protein Assay Reagent (Pierce, Rock-ford, Ill.). Equal amounts of protein ([…]) were separated by SDS-PAGE and electrotransferred onto a nitrocellulose membrane. For blotting phospho-proteins, no SDS was included in the transfer buffer. The blots were blocked with 5% milk in PBS-Tween 20 (0.1%) at room temperature for 1 h and probed with the appropriate dilution of primary antibody overnight at 4° C. The blots were washed twice in PBS-Tween 20 for 15 min and then incubated with a 1:2000 dilution of horseradish peroxidase-conjugated secondary antibody (Kirkegaard & Perry, Gaithersburg, Md.) in 5% milk/PBS-Tween 20 at room temperature for 1 h. […] Protein samples were centrifuged at 12,800×g for 30 min and quantified. […]

Data set [2] deals with MDA-MB-231 cells. As to the kind of experiment: TUNEL apoptosis in MDA-MB-231 cells. In kind it is cell-based, human. The note with it: MDA-MB-231, 24 h; with 150 nM UCN-01; PD184352 10 μM, U0126 5 μM; FIG. 8A. An excerpt: Terminal Uridyl-Nucleotide End Labeling (TUNEL) for apoptosis.
For data set [3], the system named is MCF7 cells. As to conditions: MCF7, 24 h; with 150 nM UCN-01; PD184352 10 μM, U0126 5 μM; FIG. 8B. How it is done:
Terminal Uridyl-Nucleotide End Labeling (TUNEL) for apoptosis. […] Cells were isolated 24 h after irradiation by trypsinizationi followed by centrifugation onto glass slides (cytospin). Terminal Uridyl-Nucleotide End Labeling (TUNEL) was performed on these cells as described previously [Wang et al., 1999; Park et al., 1999]. Randomly selected fields of fixed cells (150 cells per field, n=5 per slide) were counted initially using propidium iodide counter stain, followed by examination and counting of TUNEL positive staining cells of the same field under FITC/fluorescence light.

For data set [4], the system named is colon tumor cells. The note with it: mice (Sebolt-Leopold et al., 1999); cited from earlier work.
The subject of data set [5] is MCF7 cells. Briefly: Colony forming (clonogenic) assay in MCF7 cells. The format is cell-based, human. As to conditions: 25 μM PD98059, 150 nM UCN-01, replated 48 h, ± SEM. The procedure:
(§1) Colony forming (clonogenic) assay. Cells were plated 36 h prior to experimentation. Cells were pre-treated with MEK1/2 inhibitor as indicated, 2 h prior to exposure. Cells were irradiated (2 Gy). After a further 48 h, cells were isolated by tryptic digestion and single cell suspensions plated on Linbro® plates at densities of 500 cells/well and 1000 cells/well. Colony formation was defined as a colony of 50 cells or greater, 10 days after plating.

The subject of data set [6] is T47D cells. As to the kind of experiment: Colony forming (clonogenic) assay in T47D cells. The format is cell-based, human. As to conditions: mock irradiated, 25 μM PD98059, 150 nM UCN-01, replated 48 h, ± SEM. How it is done: as §1
Data set [7] concerns MDA-MB-231 cells. As to the kind of experiment: Colony forming (clonogenic) assay in MDA-MB-231 cells. The note with it: MDA-MB-231 (MDA), 25 μM PD98059, 150 nM UCN-01, replated 48 h, ± SEM. In kind it is cell-based, human. The procedure: as §1
The conditions of data set [8]: Phase I and pharmacokinetic studies (Fuse et al., 1999); cited from earlier work.

For `O=C(NOCC1CC1)c1ccc(F)c(F)c1Nc1ccc(I)cc1Cl` [PD184352], the “phosphorylation (activation) of MAPK” value in data set [1] was “essentially complete”. Further, the “apoptosis in combination with UCN-01” value in data set [2] and in data set [3] was “enhanced apoptosis” each time. The “in vivo growth of colon tumor cells” value in data set [4] is “inhibit the in vivo growth of colon tumor cells in mice”.
Take `CN[C@@H]1C[C@H]2O[C@@](C)([C@@H]1OC)n1c3ccccc3c3c4c(c5c6ccccc6n2c5c31)C(=O)N[C@H]4O` [UCN-01, 7-hydroxystaurosporine]: in data set [1], the “phosphorylation (activation) of MAPK” value is given as “induced phosphorylation (activation) of MAPK”. In addition, the “clonogenic survival (colonies, normalized to control unirradiated cells = 100%)” value in data set [5] (MCF7, 2 Gy) turned out to be 44 ± 3%; in data set [5] (MCF7, mock irradiated), 69 ± 6%; in data set [6], 103 ± 8%; in data set [7] (2 Gy) it was 55 ± 2%; in data set [7] (mock irradiated) it was 97 ± 3%. In addition, the plasma half-life entry in data set [8] was “very long plasma half-life”.
